Measured values as given in article PMC7118210 (Frontiers in Pharmacology, 2020).

Assay: Excretion in human urine and feces (mass balance)
Format: in vivo
Settings: for time within which excreted: humans
Description: All blood samples were transferred into heparin-treated centrifuge tubes and centrifuged for 10 min at 4,000 rpm and 4°C. All human urine samples were mixed and transferred (4 ml) into storage tubes. All biological samples were stored at −80°C.
The optimal volume and activity in unit volume of enzyme solution [0.2 M acetic acid/water solution: 0.2 M ammonium acetate/water solution, 15:35 (v/v)] were determined through a pretest of the enzyme (rat plasma, 10 μl, 10 U μl^-1; dog plasma, 10 μl, 10 U μl^-1; human plasma, 20 μl, 20 U μl^-1; human urine, 10 μl, 10 U μl^-1). […] To each fecal sample, 9-fold methanol-normal saline (2:1, v/v) was added, mixed (18,000 rpm, 15 min) by vortexing and centrifuged (10 min, 9,000 rpm, 4°C). […] Then, all plasma, urine, and fecal samples were extracted with ethyl acetate (rat plasma, 800 μl; dog plasma, 1,000 μl; human plasma, 3,000 μl; human urine, 3,000 μl; human feces, 3,000 μl) for at least 3 min by vortexing, centrifuged for 10 min at 3,900 rpm and 4°C; supernatants were transferred into centrifuge tubes and dried with N2. The solid material was dissolved with acetonitrile-water (1:1, v/v) and injected into the ultra high-performance liquid chromatography coupled with triple quadrupole mass spectrometry (UHPLC/MS/MS) system as described below.
The analysis of nonclinical and clinical samples was performed with a UHPLC/MS/MS system that consisted of a Shimadzu Nexera X2 ultra high-performance liquid chromatography (UHPLC) (Shimadzu Corp., Kyoto, Japan) coupled with an AB Sciex API4000 triple-quadrupole mass spectrometry (MS/MS) system (AB Sciex, Foster City, CA, USA) equipped with an electrospray ionization source and controlled by Analyst (v. 1.6.2) software. […] The mobile phase consisted of 0.1% formic acid (v/v) in water (A) and 0.1% formic acid in acetonitrile (B) using a linear gradient of 90% A (0–0.5 min), 90 to 60% A (0.5–1.5 min), 60% to 40% A (1.5–3.5 min), 40% to 10% A (3.5–4.5 min), 10% A (4.5–5.5 min), 10% to 90% A (5.5–6.0 min), and 90% A (6.0–7.5 min) for plasma; and 80% A (0–0.2 min), 80 to 64% A (0.2–2.0 min), 64% to 63% A (2.0–4.4 min), 63% to 0% A (4.4–4.5 min), 0% A (4.5–5.5 min), 0% to 90% A (5.5–5.6 min), 90% A (5.6–5.9 min), 90% to 35% A (5.9–6.0 min), 35% A (6.0–6.2 min), 35 to 80% A (6.2–6.3 min), and 80% A (6.3–7.5 min) for urine and feces. The injection volume was 10 μl with the flow rate of 0.3 ml min^-1 for plasma, and 0.4 ml min^-1 for urine and feces. The compounds were detected by multiple reaction monitoring in the negative ion electrospray mode. The electrospray source conditions were as follows: ion source gas1 30 psi, ion source gas2 60 psi, curtain gas 20 psi, collisionally activated dissociation (CAD) gas 8 psi, temperature 500°C, and ion spray voltage −4,500 V. Zero air was used for ion source gas1 and ion source gas2 and nitrogen for curtain gas and CAD gas.
Next, 9-fold normal saline, instead of ninefold methanol-normal saline (2:1, v/v), was added to maintain enzyme activity in the feces. […] These samples were maintained at 37°C for 12 h.

[1] = naringin 160 mg (high-fat diet) p.o., human
[2] = naringin 160 mg, three times a day, p.o., human

| SMILES | time within which excreted [h] | cumulative excretion in feces, Naringin (naringin 40 mg p.o., human) | cumulative excretion in urine, Naringin (naringin 40 mg p.o., human) | cumulative excretion in feces, Naringin (naringin 80 mg p.o., human) | cumulative excretion in urine, Naringin (naringin 80 mg p.o., human) | cumulative excretion in feces, Naringin [1] | cumulative excretion in urine, Naringin [1] | cumulative excretion in feces, Naringin (naringin 160 mg p.o., human) | cumulative excretion in urine, Naringin (naringin 160 mg p.o., human) | cumulative excretion in feces, Naringin [2] | cumulative excretion in urine, Naringin [2] | cumulative excretion in feces, Naringin (naringin 320 mg p.o., human) | cumulative excretion in urine, Naringin (naringin 320 mg p.o., human) | cumulative excretion in feces, Naringin (naringin 480 mg p.o., human) | cumulative excretion in urine, Naringin (naringin 480 mg p.o., human) | cumulative excretion in feces, Naringenin [2] | cumulative excretion in urine, Naringenin [2] |
| --- | --- | --- | --- | --- | --- | --- | --- | --- | --- | --- | --- | --- | --- | --- | --- | --- | --- |
| C[C@@H]1O[C@@H](O[C@H]2[C@H](Oc3cc(O)c4c(c3)O[C@H](c3ccc(O)cc3)CC4=O)O[C@H](CO)[C@@H](O)[C@@H]2O)[C@H](O)[C@H](O)[C@H]1O [naringin, Naringin] | ≤ 48 | 0.122 ± 0.202 % of dose | 0.067 ± 0.039 % of dose | 0.023 ± 0.036 % of dose | 0.037 ± 0.013 % of dose | 9.85 ± 20.0 % of dose | 0.025 ± 0.008 % of dose | 0.016 ± 0.023 % of dose | 0.027 ± 0.014 % of dose | 0.563 ± 1.00 % of dose | 0.034 ± 0.014 % of dose | 0.126 ± 0.325 % of dose | 0.033 ± 0.026 % of dose | 0.023 ± 0.033 % of dose | 0.012 ± 0.004 % of dose | – | – |
| O=C1C[C@@H](c2ccc(O)cc2)Oc2cc(O)cc(O)c21 [naringenin, Naringenin] | ≤ 48 | – | – | – | – | – | – | – | – | – | – | – | – | – | – | 1.83 ± 2.32 % of dose | 28.3 ± 43.2 % of dose |
